Assay results: patent US5162330A, “Dynemicin C antibiotic, its triacetyl derivative and pharmaceutical composition containing same” (Bristol-Myers Squibb Co., priority 1990, dated 1992)

Key:
gram-negative organisms = experiment: In vitro antibacterial activity, gram-negative organisms as a group; format: cell-based; conditions: 18 h, read-out: MIC (range)
Experimental: (§1) The minimum inhibitory concentration (MIC) was determined by a two-fold serial tube dilution method using nutrient agar (pH7, Difco containing 10^5 cfu/ml).

Solubility = format: physicochemical; conditions: solvent not stated
[1] = system: HCT-116 (human colon carcinoma) cells; experiment: In vitro cytotoxicity; format: cell-based; conditions: 72 hours, 37° C., neutral red, 540 nm
Experimental: (§2) Dynemicin C and its triacetate derivative were tested for in vitro cytotoxicity against murine and human tumor cell lines. Dynemicin A and its triacetate derivative were used as reference compounds. B16-F10 (murine melanoma) cells were grown to the logarithmic phase in enriched Eagle minimum essential medium (MEM) supplemented with fetal calf serum (FCS, 10%) and kanamycin (60 mcg/ml) and HCT-116 (human colon carcinoma) cells in Maccoy's 5A medium supplemented with FCS (10%), penicillin (100 μ/ml) and streptomycin (100 mcg/ml), and were harvested and inoculated into wells of the 96- or 24-well tissue culture plate with test materials at concentrations of 1.5×10^4, 1.3×10^4, 1.3×10^4, 2.5×10^4 and 3.0×10^4 cells/ml., respectively. They were incubated at 37° C. in a humidified atmosphere of 5% CO2 and 95% air for 72 hours. The cytotoxic activities were determined colorimetrically at 540 nm after staining viable cells with 0.006% neutral red solution.

[2] = system: B16-F10 (murine melanoma) cells; experiment: In vitro cytotoxicity; format: cell-based; conditions: Mus musculus, 72 hours, 37° C., neutral red, 540 nm
Experimental: as §2

C. neoformans IAM4514 = experiment: In vitro antifungal MIC; format: cell-based, Cryptococcus neoformans; conditions: C. neoformans IAM4514; in words
Experimental: (§3) The antifungal MICs of dynemicin C and its triacetate were determined by an agar dilution method on yeast morphology agar adjusted to pH7.0 with 1/15M phosphate buffer. A 5 μl aliquot of fungal suspension containing 10^6 cells/ml was inoculated onto the surface of the antibiotic-containing agar plates with a multiinoculator.

[3] = system: Cryptococcus neoformans D49; experiment: In vitro antifungal MIC; format: cell-based
Experimental: as §3

[4] = system: Candida albicans ATCC 38247; experiment: In vitro antifungal MIC; format: cell-based
Experimental: as §3

gram-positive organisms = experiment: In vitro antibacterial activity, gram-positive organisms as a group; format: cell-based
Experimental: as §1

E. coli 255 = experiment: In vitro antibacterial MIC; format: cell-based; conditions: Escherichia coli, 255, 18 h, pH 7
Experimental: as §1

M. luteus PCI 1001 = experiment: In vitro antibacterial MIC; format: cell-based; conditions: Micrococcus luteus, PCI1001, pH 7, nutrient agar pH7, 32° C., 18 hours
Experimental: as §1

S. epidermidis 11-1230 = experiment: In vitro antibacterial MIC; format: cell-based; conditions: Staphylococcus epidermidis, 111230, 18 h, pH 7
Experimental: as §1

P. aeruginosa KKA19 = experiment: In vitro antibacterial MIC; format: cell-based; conditions: Pseudomonas aeruginosa, pH 7, nutrient agar pH7, 32° C., 18 hours
Experimental: as §1

E. faecium A24817 = experiment: In vitro antibacterial MIC; format: cell-based; conditions: Enterococcus faecium, pH 7, nutrient agar pH7, 32° C., 18 hours
Experimental: as §1

P. aeruginosa IPM-8 = experiment: In vitro antibacterial MIC; format: cell-based; conditions: Pseudomonas aeruginosa, IPM8, 18 h, pH 7
Experimental: as §1

S. aureus A15036 (MRSA) = experiment: In vitro antibacterial MIC; format: cell-based; conditions: Staphylococcus aureus, 18 h, pH 7
Experimental: as §1

P. cepecia No. 651 = experiment: In vitro antibacterial MIC; format: cell-based; conditions: 18 h, pH 7
Experimental: as §1

M. morganii I510 = experiment: In vitro antibacterial MIC; format: cell-based; conditions: Morganella morganii, I510, 18 h, pH 7
Experimental: as §1

X. maltophilia GN12873 = experiment: In vitro antibacterial MIC; format: cell-based; conditions: Stenotrophomonas maltophilia, pH 7, nutrient agar pH7, 32° C., 18 hours
Experimental: as §1

S. marcescens IPM-16 = experiment: In vitro antibacterial MIC; format: cell-based; conditions: Serratia marcescens, IPM16, 18 h, pH 7
Experimental: as §1

S. aureus smith = experiment: In vitro antibacterial MIC; format: cell-based; conditions: Staphylococcus aureus, 18 h, pH 7
Experimental: as §1

E. coli Juhl A15119 = experiment: In vitro antibacterial MIC; format: cell-based; conditions: Escherichia coli, JUHLA15119, 18 h, pH 7
Experimental: as §1

S. marcescens IPM-15 = experiment: In vitro antibacterial MIC; format: cell-based; conditions: Serratia marcescens, IPM15, 18 h, pH 7
Experimental: as §1

P. aeruginosa A9843A = experiment: In vitro antibacterial MIC; format: cell-based; conditions: Pseudomonas aeruginosa, 18 h, pH 7
Experimental: as §1

X. maltophilia No. 661 = experiment: In vitro antibacterial MIC; format: cell-based; conditions: Stenotrophomonas maltophilia, pH 7, nutrient agar pH7, 32° C., 18 hours
Experimental: as §1

S. aureus IPM-24 (MRSA) = experiment: In vitro antibacterial MIC; format: cell-based; conditions: Staphylococcus aureus, 18 h, pH 7
Experimental: as §1

E. faecalis A9808 = experiment: In vitro antibacterial MIC; format: cell-based; conditions: Enterococcus faecalis, A9808, 18 h, pH 7
Experimental: as §1

E. cloacae IPM-12 = experiment: In vitro antibacterial MIC; format: cell-based; conditions: Enterobacter cloacae, IPM12, 18 h, pH 7
Experimental: as §1

P. aeruginosa IPM-9 = experiment: In vitro antibacterial MIC; format: cell-based; conditions: Pseudomonas aeruginosa, IPM9, 18 h, pH 7
Experimental: as §1

P. aeruginosa A20599 = experiment: In vitro antibacterial MIC; format: cell-based; conditions: Pseudomonas aeruginosa, A20599, 18 h, pH 7
Experimental: as §1

P. cepecia A21213 = experiment: In vitro antibacterial MIC; format: cell-based; conditions: 18 h, pH 7
Experimental: as §1

P. vulgaris IPM-13 = experiment: In vitro antibacterial MIC; format: cell-based; conditions: Proteus vulgaris, IPM13, 18 h, pH 7
Experimental: as §1

K. pneumoniae PCI 602 = experiment: In vitro antibacterial MIC; format: cell-based; conditions: Klebsiella pneumoniae, PCI602, 18 h, pH 7
Experimental: as §1

P. rettgeri IPM-14 = experiment: In vitro antibacterial MIC; format: cell-based; conditions: Providencia rettgeri, IPM14, 18 h, pH 7
Experimental: as §1

P. mirabilis IFO 3849 = experiment: In vitro antibacterial MIC; format: cell-based; conditions: Proteus mirabilis, IFO3849, 18 h, pH 7
Experimental: as §1

## COC1=C(C=O)C(C)C23OC24c2cc(OC(C)=O)c5c(c2NC3C#CC=CC#CC14)C(=O)c1c(OC(C)=O)ccc(OC(C)=O)c1C5=O (stereo not shown) [Dynemicin C triacetate]
gram-negative organisms
  MIC: 0.05 to 0.8 µg/mL
Solubility
  solubility relative to dynemicin C: increased solubility relative to dynemicin C
[1]
  IC50: 0.0028 µg/mL
[2]
  IC50: 0.00074 µg/mL
C. neoformans IAM4514
  activity (compared with amphotericin B and ketoconazole): inactive
[3]; Cryptococcus neoformans D49, in words
  activity (compared with amphotericin B and ketoconazole): inactive
[3]; Cryptococcus neoformans, D49, 40 h, pH 7
  MIC: > 100 µg/mL
[4]; Candida albicans ATCC 38247, amphotericin resistant, in words
  activity compared with ketoconazole: stronger than that of ketoconazole
[4]; Candida albicans, ATCC38247, 40 h, pH 7
  MIC: 0.4 µg/mL
gram-positive organisms; comparison in words
  activity against gram-positive organisms compared with amikacin: much better activities against these organisms than amikacin
gram-positive organisms; in words
  activity against gram-positive organisms: strong activity
E. coli 255
  MIC: 0.4 µg/mL
M. luteus PCI 1001
  MIC: 0.0031 µg/mL
S. epidermidis 11-1230
  MIC: 0.0008 µg/mL
P. aeruginosa KKA19
  MIC: 0.4 µg/mL
E. faecium A24817
  MIC: 0.0063 µg/mL
P. aeruginosa IPM-8
  MIC: 0.4 µg/mL
S. aureus A15036 (MRSA)
  MIC: 0.0004 µg/mL
P. cepecia No. 651
  MIC: 0.2 µg/mL
M. morganii I510
  MIC: 0.05 µg/mL
X. maltophilia GN12873
  MIC: 0.8 µg/mL
S. marcescens IPM-16
  MIC: 0.4 µg/mL
S. aureus smith
  MIC: 0.0008 µg/mL
E. coli Juhl A15119
  MIC: 0.4 µg/mL
S. marcescens IPM-15
  MIC: 0.8 µg/mL
P. aeruginosa A9843A
  MIC: 0.2 µg/mL
X. maltophilia No. 661
  MIC: 0.2 µg/mL
S. aureus IPM-24 (MRSA)
  MIC: 0.0004 µg/mL
E. faecalis A9808
  MIC: 0.0063 µg/mL
E. cloacae IPM-12
  MIC: 0.8 µg/mL
P. aeruginosa IPM-9
  MIC: 6.3 µg/mL
P. aeruginosa A20599
  MIC: 0.4 µg/mL
P. cepecia A21213
  MIC: 0.2 µg/mL
P. vulgaris IPM-13
  MIC: 0.1 µg/mL
K. pneumoniae PCI 602
  MIC: 0.2 µg/mL
P. rettgeri IPM-14
  MIC: 0.1 µg/mL
P. mirabilis IFO 3849
  MIC: 0.2 µg/mL
